Experimental data taken from publication PMC8622278, “The Effects of Structural Alterations in the Polyamine and Amino Acid Moieties of Philanthotoxins on Nicotinic Acetylcholine Receptor Inhibition in the Locust, Schistocerca gregaria” (Molecules, 2021).
Several values for one entry are separate records, joined by “and”; a condition that tells them apart may be missing. Identical values can stand only once. Like-named read-outs stand apart in the source and are kept apart here.

Assays:
locust neuron nAChR = experiment: Whole-cell patch-clamp of locust mushroom body neurons, ACh-evoked currents; type: cell-based, Schistocerca gregaria; conditions: for Fold increase in potency vs PhTX-343, 1 s current / Fold increase in potency vs PhTX-343, peak current: IC50 PhTX-343 / IC50 analogue; for Cells in which potentiation of the ACh response was observed: co-application of 0.01 and 0.1 μM
Method: Neuronal cells were harvested through dissection of adult desert locusts (Shistocerca gregaria) purchased from livefoods.com. Following 10 min of cold anaesthesia at 4 °C, the locusts were submerged in 70% ethanol and their heads removed by decapitation with dissection scissors. The front of the head capsule was removed to expose the mushroom body of the brain, which was extracted, cut into small pieces, and placed into a 1 mL Eppendorf tube with 200 μL of Rinaldi’s saline (135 mM NaCl, 25 mM KCl, 0.4 mM NaHCO3, 0.5 mM glucose, and 5 mM HEPES adjusted to pH 7.2 with NaOH) containing 0.5 mg/mL dispase and 2 mg/mL collagenase. After 15 min incubation at 36.5 °C, neurons were centrifuged at 800× g for 1 min at room temperature to form a pellet. The supernatant was removed and replaced with 200 μL locust culture medium (5:4 − DMEM + 10% FCS + 2 mM Gln: Schneider’s insect medium + 10 IU/mL penicillin + 20 μg/mL streptomycin). A total of 200 μL of culture medium was gently pipette-mixed with the pellet to create a suspension of cells, which were spread over poly-L-lysine-coated glass coverslips (5 × 20 mm) in 35 mm Petri dishes containing 2 mL locust culture medium. Petri dishes were incubated overnight at 36.5 °C in a 5% CO2 atmosphere.
Experiments were conducted 16–24 h after neuron dissociation. Coverslips covered in locust neurons were placed into a patch-clamp perfusion chamber, and were then constantly perfused with locust saline solution (180 mM NaCl, 10 mM KCl, 2 mM CaCl2, 10 mM HEPES, and pH 7.2 with NaOH). Borosilicate glass patch pipettes (1B150F-4, World Precision Instruments, Hertfordshire, UK), pulled to ~5–10 MΩ with a P-97 Flaming/Brown micropipette puller (Sutter Instrument Co., Novato, CA, USA), were filled with caesium pipette solution (140 mM CsCl, 1 mM CaCl2, 1 mM MgCl2, 11 mM EGTA, and 5 mM HEPES, pH 7.2) and placed in a patch pipette holder mounted on the patch-clamp amplifier head stage. Patch-clamped cells were clamped at a holding potential (VH) of −75 mV. Whole-cell currents were monitored by using an Axopatch 200A patch-clamp amplifier (Molecular Devices, San Jose, CA, USA) and recorded with WinWCP V4.5.7 software (Dr John Dempster, Institute of Pharmacy & Biomedical Sciences, University of Strathclyde, Glasgow, UK). Test compounds were focally applied to cells as 1 s pulses using a DAD-12 superfusion system (ALA Scientific Instruments, Farmingdale, NY, USA). Between each application of test compounds, clamped cells were washed for 1 min with locust saline. […]
A total of 100 μM acetylcholine (ACh) was applied to cells twice prior to (control) and once after the co-application of 100 μM ACh and PhTX analogue. Peak current and current after 1 s of application were measured using WinWCP, and then the percentage of control response values were generated by normalising responses to ACh + PhTX co-application to the ACh-only control response. GraphPad Prism 9 (GraphPad Software, San Diego, CA, USA) was used for data analysis, graph plotting, curve fitting, and statistical analysis. To estimate the ACh EC50, concentration–response data were fit by the Hill equation:(1) % maximum response=100/(1+10^(LogEC50−X)S) where X is the log of the ACh concentration and S is the Hill slope. Concentration–inhibition curves were generated by plotting the mean and standard error of the normalised current measurements against log antagonist concentration, and then IC50 values were estimated by fitting a non-linear regression curve by using the equation:(2) % control response=100/(1+10^(X−LogIC50)S) where X is the log of the concentration of the PhTX analogue and S is the Hill slope.

rat α4β2 nAChRs = conditions: rat subtype α4β2; cited from earlier work
rat α3β4 nAChRs = conditions: rat subtype α3β4; cited from earlier work
human muscle-type nAChRs = test system: human muscle-type nAChRs; parameters: method as in PMID 16892364; conditions: cited from earlier work
[1] = inhibition of 100 μM ACh-evoked current after 1 s of activation, VH −75 mV, read-out: IC50 (95% CI), 1 s Current
[2] = inhibition of 100 μM ACh-evoked peak current, VH −75 mV, read-out: IC50 (95% CI), Peak Current
[3] = at both 0.01 and 0.1 μM, cells showing potentiation, 100 μM ACh

Work on `CC(=O)OCC[N+](C)(C)C` [ACh, acetylcholine] yielded an EC50 (locust neuron nAChR; peak response, n = 11, read-out: EC50 of ACh-evoked whole-cell current) of 20.3 µM.

For `CCCC(=O)N[C@@H](CC1CCCCC1)C(=O)NCCCCCCCCCCCCN` [Cha-PhTX-12], the “Fold increase in potency vs PhTX-343, 1 s current” value (shortened to “Fold increase … 1 s current”) (locust neuron nAChR) was 471 fold, the “Fold increase in potency vs PhTX-343, peak current” value (“Fold increase … peak current” for short) (locust neuron nAChR) was greater than 5000 fold and the IC50 (locust neuron nAChR; at −75 mV (abstract; 1 s current), read-out: IC50) was 0.00171 µM. It also gave an IC50 (locust neuron nAChR; [1]) of 0.0017 µM and an IC50 (locust neuron nAChR; [2]) of 0.0075 µM.

For `CCCC(=O)N[C@@H](CC1CCCCC1)C(=O)NCCCNCCCCNCCCN` [Cha-PhTX-343], the “Potentiation, % of the ACh control response, peak and 1 s current similar” value (locust neuron nAChR; 0.01 μM, cells showing potentiation, 100 μM ACh) was “about 145%”, the “Potentiation, % of the ACh control response, peak and 1 s current similar” value (locust neuron nAChR; 0.1 μM, cells showing potentiation, 100 μM ACh) was roughly 125% and the “Fold increase … 1 s current” value (locust neuron nAChR) was 1.8 fold. The “Fold increase … peak current” value (locust neuron nAChR) was 23 fold, the “Cells in which potentiation of the ACh response was observed” value (locust neuron nAChR) was 12 out of 22 and the IC50 (locust neuron nAChR; [1]) was 0.44 µM. The IC50 (locust neuron nAChR; [2]) was 1.75 µM, the IC50 (rat α4β2 nAChRs) was “low nanomolar range” and the IC50 (rat α3β4 nAChRs) was “low nanomolar range”. The “Times more potent than PhTX-12” value (human muscle-type nAChRs) was greater than 10 times and the “Times more potent than PhTX-343” value (human muscle-type nAChRs) was greater than 100 times.

For `CCCC(=O)N[C@@H](Cc1ccc(O)cc1)C(=O)NCCCCCCCCCCCCN` [PhTX-12], the “Fold increase … 1 s current” value (locust neuron nAChR) was 6.2 fold and ~ 6 fold, the “Fold increase … peak current” value (locust neuron nAChR) was 34 fold and the IC50 (locust neuron nAChR; [1]) was 0.13 µM. The IC50 (locust neuron nAChR; [2]) was 1.17 µM.

In the case of `CCCC(=O)N[C@@H](Cc1ccc(O)cc1)C(=O)NCCCNCCCCNCCCN` [PhTX-343, philanthotoxin-343, reference compound], the “Mean potentiation, % of the ACh control response, 1 s current” value (locust neuron nAChR; [3]) is reported as roughly 300%, the “Mean potentiation, % of the ACh control response, peak current” value (locust neuron nAChR; [3]) is reported as “around 200%” and the “Cells in which potentiation of the ACh response was observed” value (locust neuron nAChR) is reported as 8 out of 23. It also gave an IC50 (locust neuron nAChR; [1]) of 0.8 µM and an IC50 (locust neuron nAChR; [2]) of 39.8 µM.

For `COc1cc2c3cc1Oc1cc(ccc1O)C[C@@H]1c4c(cc(OC)c(O)c4Oc4ccc(cc4)C[C@@H]3N(C)CC2)CC[N+]1(C)C` [d-tubocurarine, reference compound], the IC50 (locust neuron nAChR; co-applied 0.1 to 100 μM with 100 μM ACh, n = 11, read-out: IC50 for inhibition of 100 μM ACh current) was 2.73 µM and the “Inhibition at the highest concentration” value (locust neuron nAChR; highest concentration (100 μM) co-applied with 100 μM ACh) was “complete inhibition”.

For `CN1CCC[C@H]1c1cccnc1` [nicotine, reference compound], the “Whole-cell current response compared with 100 μM ACh” value (locust neuron nAChR; 100 μM, same neuron) was “smaller than that seen for ACh”.
